Data from US20240299321A1, “METHODS TO SENSITIZE CANCER CELLS AND STANDARDIZED SCREENING ASSAY FOR IMMUNOTHERAPY” (THE TRUSTEES OF INDIANA UNIVERSITY, priority 2020, published 2024).

How the values were obtained:
[1] = tested on: NY-ESO-1+ MDA-MB-468 cells; assay: NY-ESO-1+ MDA-MB-468 organoid and NY-ESO-1-specific CD8+ T cell co-culture cytotoxicity; assay type: cell-based, human; settings: MDA-MB-468/CAF organoids; FIG. 2C
Procedure: Breast tumor organoid culture: Single cells isolated from EO771-derived tumors in tumor-bearing C57BL/6 mice were suspended into cold mouse breast cancer culture medium containing 10% Matrigel (Corning) with a concentration of 2×10^5 cells ml^−1. The cells (2 ml) were seeded into each well of pre-warmed 6-well microplate with ultra-low attachment surface (Corning) and cultured at 37° C. with 5% CO2. The same volume of fresh culture medium was added every other day. After 7-day culture, tumor organoids were collected using cell strainers with pore size of 70 and 150 μm. For human tumor organoid culture, 2 ml of NY-ESO-1+ MDA-MB-468 cells with a concentration of 2×10^5 cells ml-1 were seeded into each well of the prewarmed 6-well microplate with ultra-low attachment surface. The cells were cultured for two days to generate tumor spheroids. The resulting spheroids were mixed with cancer associated fibroblasts (CAFs) with a ratio of 2:1 (tumor cells versus CAFs) and cultured in the human breast cancer organoid culture medium3 for 5 days. Finally, the MDA-MB-468 tumor organoids with diameter of 70˜150 μm were used for co-culture with NY-ESO-1-specific human CD8+ T cells (ASTARTE Biologics). Patient-derived organoids (PDOs) were cultured following the same procedures as mouse EO771 tumor organoids using human breast cancer organoid culture medium.
Cytotoxicity of CD8+ T cells in the co-culture with tumor organoids We generated mouse EO771 (Luc+OVA+) cell line that presents OVA257-264 antigen (from chicken ovalbumin) and human MDA-MB-468 (NY-ESO-1+) cell line that presents NY-ESO-1 antigen for use in the T cell-mediated cytotoxicity assay. OVA-specific CD8+ T cells were isolated from the spleen of OT-I mouse that contains transgenic inserts of Tcra-V2 and Tcrb-V5 genes. The transgenic T cell receptor can recognize the ovalbumin peptide SIINFEKL (OVA257-264; SEQ ID NO: 55). […] The cells were co-cultured for 24 h and subject to further analyses, such as optical and fluorescence imaging, luciferase assay or flow cytometry.

EO771 tumors = assay: EO771 orthotopic breast tumor model in immunocompetent C57BL/6 mice; assay type: in vivo; settings: for expression of GZMB, IFNγ and TNFα in the tumor-infiltrated CD8+ T cells / tumor infiltration of T cells (total CD3+, CD4+ and CD8+): 20 mg kg-1; for expression of GZMB, IFNγ and TNFα in the tumor-infiltrated CD8+ T cells: FIG. 3E; for tumor infiltration of T cells (total CD3+, CD4+ and CD8+): flow cytometry; for tumor growth and weight: 20 mg kg-1 i.p., 3 times/week for 2 weeks; for tumor growth and weight / tumor cell proliferation (Ki67+): vs control group; for numbers of apoptotic tumor cells (cleaved Caspase 3+) / tumor cell proliferation (Ki67+): IHC of tumor tissue; for anti-tumor activity after depletion of CD4+ T cells: anti-CD4 10 mg kg-1 + drug 20 mg kg-1; for anti-tumor activity after depletion of CD8+ T cells: anti-CD8 10 mg kg-1 + drug 20 mg kg-1; for IFNγ and TNFα secretion by CD8+ T cells of drug-treated tumors: upon stimulation (PMA and ionomycin)
Procedure: (§1) T cell effector function analysis: We measured cytokine and cytolytic granule production (IFNγ, GZMB and TNFα) of CD8+ T cells from mouse tumor samples and tumor organoid-T cell co-culture. Briefly, CD8+ T cells were placed into the 24-well plate at 1×10^6 cells/well, stimulated with 1 μM ionomycin and 50 ng ml-1 phorbol 12-myristate 13-acetate (PMA) (Sigma-Aldrich) for 4 h, in the presence of 5 μg ml-1 Brefeldin A (BFA), with the purpose to amplify the expression of intracellular cytokines61. The cells were stained with APC/Cy7-conjugated anti-CD8a (Biolegend) for 15 min and then fixed by 4% PFA. After washing, cells were stained with PerCP/Cy7-conjugated anti-GZMB, APC-conjugated anti-IFNγ and PE-conjugated anti-TNFα (Biolegend) for 15 min. In flow cytometric analyses, T cells stained with isotype control antibodies were used as negative controls for gating the cytokine or granule-producing cells. For T cells from tumor organoid-T cell co-culture, tumor organoids were first digested into single cells with TrypLE Express at 37° C. before APC/Cy7-conjugated anti-CD8a staining. In the IFNγ and TNFα secretion assay (Biolegend), T cells were stimulated with ionomycin and PMA without the presence of BFA. The media were collected for ELISA assay.
Immunohistochemistry (IHC) and Immunofluorescence (IF) analysis of tumor organoids: Tumor organoids were gently centrifuged at 100 rcf from organoid culture medium and then embedded in 2% agar. Tumor organoids were fixed in 4% paraformaldehyde solution for overnight at room temperature. The samples were replaced with 70% ethanol and later embedded in paraffin blocks. Paraffin sections were cut at 5 μm thickness, attached on slides, heated at 60° C. for 1 h and then overnight at 37° C. The slides were stained with hematoxylin and eosin (H&E). IHC staining follows the protocol described62. Mouse-specific antibodies for CD8α (Cell Signaling Technology, clone D4W2Z, 1:400 dilution), cleaved caspase3 (Cell Signaling Technology, clone D175, 1:400 dilution) and Ki67 (Cell Signaling Technology, clone D3B5, 1:400 dilution) were used for IHC staining. The DAB peroxidase substrate kit (Vector laboratories Inc.) was used to visualize the antibodies. For IF analysis, the sample slides were blocked 3% BSA for 40 min after hydration. The slides were stained with primary antibodies including EpCAM (Abcam, 1:400 dilution), FITC-conjugated anti-α-SMA (Genetex, 1:400 dilution) and AF594-conjugated anti-CD31 (Biolegend) for 1 h. For EpCAM staining, the slide was further stained with secondary antibody Alexa Fluor 647-conjugated anti-rabbit IgG (Biolegend, 1:200) for 40 min. The fluorescence images were captured under a Leica DM4B microscope.
Animal studies: All animal experiments were performed in accordance with the National Institutes of Health's Animal Use Guidelines and protocols approved by the Animal Care and Use Committee of Indiana University School of Medicine. To examine the tumorigenic potential of tumor organoids, tumor organoids with different sizes (diameter of 30-70, 70-150, and 150-500 μm) were orthotopically injected into fat pad of the 4th mammary gland in female C57BL/6 mice. Each mouse was injected with a total of 2×10^5 tumor cells. 5 mice were used in each group. Tumors were measured in two dimensions using a manual caliper. Tumor volume was calculated using the following formula: V=0.5×length×width×width. Tumor volume was measured every 3 days. Tumors were harvested 22 days after injection. The tumor growth, volume and weight were analyzed. To evaluate the anti-tumor effect of drugs in immunocompetent C57BL/6 mice and immunodeficient nude (NU/J) mice, 2×10^5 EO771 cells were orthotopically injected into fat pad of the 4th mammary gland in female mice. […]

[2] = tested on: OVA-specific CD8+ T cells; assay: T cell effector function in EO771 organoid co-culture; assay type: cell-based, mouse; settings: for IFNγ, GZMB and TNFα expression levels in the co-cultured CD8+ T cells: co-cultured with drug-treated tumor organoids; for secreted IFNγ and TNFα (ELISA): vs T cells co-cultured with untreated organoids
Procedure: as §1

| SMILES | T cell-mediated cytotoxicity [1] | expression of GZMB, IFNγ and TNFα in the tumor-infiltrated CD8+ T cells (EO771 tumors) | tumor infiltration of T cells (total CD3+, CD4+ and CD8+) (EO771 tumors) | tumor growth and weight (EO771 tumors) | numbers of apoptotic tumor cells (cleaved Caspase 3+) (EO771 tumors) | tumor cell proliferation (Ki67+) (EO771 tumors) | anti-tumor activity after depletion of CD4+ T cells (EO771 tumors) | anti-tumor activity after depletion of CD8+ T cells (EO771 tumors) | anti-tumor activity relative to the other candidates (EO771 tumors; in vitro and in vivo assays) | IFNγ and TNFα secretion by CD8+ T cells of drug-treated tumors (EO771 tumors) | IFNγ, GZMB and TNFα expression levels in the co-cultured CD8+ T cells [2] | secreted IFNγ and TNFα (ELISA) [2] | cytotoxicity of the CD8+ T cells in the tumors (EO771 tumors; immune analyses of treated tumors) |
| --- | --- | --- | --- | --- | --- | --- | --- | --- | --- | --- | --- | --- | --- |
| Nc1ccccc1NC(=O)CCCCCCC(=O)Nc1ccccc1 [BML-210] | pronouncedly induced | up-regulated | higher tumor infiltration | significantly suppressed | increased | markedly lower | did not have much effect | abolished the anti-tumor activity | most potent anti-tumor activity | secreted more IFNγ and TNFα | remarkably up-regulated | much higher levels | – |
| C#Cc1cccc(Nc2ncnc3cc(OC)c(OCCCCCCC(=O)NO)cc23)c1 [CUDC-101] | pronouncedly induced | up-regulated | higher tumor infiltration | significantly suppressed | increased | markedly lower | did not have much effect | abolished the anti-tumor activity | – | secreted more IFNγ and TNFα | remarkably up-regulated | much higher levels | – |
| c1ccc([C@@H]2C[C@H]2NC2CCNCC2)cc1 [GSK-LSD1] | pronouncedly induced | – | higher tumor infiltration of T cells | markedly suppressed | increased | much lower | – | – | – | – | remarkably up-regulated | much higher levels | enhanced cytotoxicity of the CD8+ T cells |
